# Assay results from patent US6069167A, “Use of antioxidant agents to treat cholestatic liver disease” (priority 1997, dated 2000).
# Tested on: TCDC hepatic toxicity
# Format: in vivo, male Sprague-Dawley rats
# Settings: rat, in vivo
# Excerpt: Young adult male Sprague-Dawley rats (150-180 gram weight) purchased from Sasco, Inc. (Omaha, Nebr.) were fed Purina Lab Chow (Ralston Purina Co., Chicago, Ill.) ad libitum for 2-3 weeks and housed in polyethylene cages with stainless steel tops on a 12-hour light-dark cycle. All rats received humane care in compliance with the guidelines of the Animal Use in Research Committee of the University of Colorado Health Sciences Center. […] TCDC is a conjugate of the bile acid most implicated in cholestatic liver injury9,11,12. TCDC was solubilized in 5% dextrose, 10% BSA, and 0.45% normal saline. TCDC was administered while rats were under light methoxyflurane anesthesia as an intravenous bolus of the desired dose in 1 to 2 minutes through the tail vein. TCDC dosing was performed between 7 and 9 am. […] Rats were divided into two treatment groups. One group was pretreated with parenteral Vitamin E (all-rac-alpha tocopherol, […], Hoffmann-LaRoche,Nutley, N.J.). The other group was not pretreated. These rats then received either vehicle or TCDC (10 μmol/[…]) by tail vein injection (as described in Example 1). […] All i.p. injections were administered under light methoxyflurane anesthesia. Following the vitamin E or saline injections, rats were randomly assigned to receive a tail vein bolus injection of either TCDC or vehicle. Rats were sacrificed four hours later and serum was analyzed for AST, ALT, total bilirubin and alkaline phosphatase. […] The serum alpha tocopherol:total lipids ratio (mg/gm) was calculated as an additional index of vitamin E status^41.
structure (smiles),measurement,value
"C[C@H](CCC(=O)NCCS(=O)(=O)O)[C@H]1CC[C@H]2[C@@H]3[C@H](O)C[C@@H]4C[C@H](O)CC[C@]4(C)[C@H]3CC[C@]12C [TCDC, taurochenodeoxycholic acid]",ALT,1111 ± 213 IU/L
same,AST,2472 ± 505 IU/L
same,Bilirubin,0.4 ± 0.1 mg/dL
